The values that follow come from US12527763B2, “Pyrrole amide compound and use thereof” (SUNSHINE LAKE PHARMA CO., LTD., priority 2019, dated 2026).

The target in data set [1] is mineralocorticoid receptor (MR) (Homo sapiens (Human), UniProt P08235). Briefly: In vitro activity test: MR LBD-Gal4 DBD dual luciferase reporter gene assay in HEK293 cells with aldosterone at EC80. The class given is cell-based. The note with it: antagonism of aldosterone at EC80, 18 hours. From the text: Using the characteristics of luciferase binding to the substrate to generate a chemiluminescence reaction, the plasmid containing mineralocorticoid receptor (MR) ligand binding domain (LBD) fused with Gal4 DNA binding domain (DBD) and the firefly luciferase reporter gene plasmid under the control of Gal4 UAS (upstream activation sequence) are transfected into human embryonic kidney cells (HEK293). The changes in mineralocorticoid receptor activity before and after stimulation or the influence of different stimuli on mineralocorticoid receptor activity are judged by the level of firefly luciferase activity. At the same time, in order to reduce the impact of internal change factors on the accuracy of the experiment, the plasmid with Renilla luciferase gene is used as a control plasmid to transfect cells to provide an internal control for transcriptional activity, so that the test results are not interfered by changes in experimental conditions.
Chain of mineralocorticoid receptor (MR) (P08235 726-964, species assumed): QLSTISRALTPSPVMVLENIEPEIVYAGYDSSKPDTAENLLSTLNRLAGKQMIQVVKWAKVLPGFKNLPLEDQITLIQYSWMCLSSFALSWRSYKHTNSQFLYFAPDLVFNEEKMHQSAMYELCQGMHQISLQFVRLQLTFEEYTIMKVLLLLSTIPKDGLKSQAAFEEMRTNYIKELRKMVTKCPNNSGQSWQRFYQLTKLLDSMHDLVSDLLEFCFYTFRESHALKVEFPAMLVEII
• 1) The HEK293 cells were collected after trypsinization and the cell density was adjusted to 500,000 cells/mL; • 2) FuGENE HD transfection reagent was added to the cell suspension; • 3) The above cell suspension was inoculated into a 96-well cell culture plate of 100 μL/well, and incubated for 24 hours at 37° C., 5% CO2; • 4) A series of concentrations of the test compound solution and EC80 concentration of agonist aldosterone were added to each well and incubated for 18 hours; • 5) Firefly and Renilla luciferase signals were detected by Promega dual luciferase reporter gene test system. Result Processing: • 1) After obtaining the firefly luciferase signal (F) and the Renilla luciferase signal (R), the Renilla luciferase signal was used for correction, that is, the F/R value was used for subsequent calculation of inhibition rate; • 2)% inhibition rate=(Max−X)/(Max−Min)×100%, wherein Max is the F/R value of the positive control well, Min is the F/R value of the negative control well, and X is the test compound well of different concentrations F/R value; • 3) IC50 was calculated by GraphPrism 5.0 mapping software.
Background: A reporter such as luciferase makes a cellular process visible.

Data set [2] can be described thus: Pharmacokinetic experiment in cynomolgus monkey. The class given is in vivo, cynomolgus monkeys. The note with it: oral, 3 mg/kg; for AUC(0-inf) / Cmax / Tmax / half-life: cynomolgus monkey, plasma, female cynomolgus monkeys. The procedure: Three female cynomolgus monkeys of 3.0-3.5 kg were taken and orally administered with the test compound at a dosage of 3 mg/kg; after the administration, blood was collected at the time points of 0.083, 0.25, 0.5, 1, 2, 4, 6, 8, 24, 32 and 48 hours. A standard curve was established within an appropriate range based on the sample concentration, and AB SCIEX API 5000 LC-MS/MS was used to determine the concentration of the test compounds in the plasma sample in the MRM mode. According to the drug concentration-time curve, WinNnonlin 6.3 software non-compartmental model method was used to calculate the pharmacokinetic parameters.

Data set [3] in a line: Pharmacokinetic experiment in Beagle dogs. The note with it: oral, 5.0 mg/kg; for AUC(0-inf) / Cmax / Tmax / half-life: dog, plasma. The class given is in vivo. The procedure:
Beagle dogs 8-10 kg were randomly divided into two groups, and the test compound was administered orally at a dosage of 5.0 mg/kg; after administration, blood was collected at the time points of 0.0833, 0.25, 0.5, 1.0, 2.0, 4.0, 6.0, 8.0, 24.0, 32.0 and 48.0 hours. A standard curve was established within a suitable range according to the sample concentration, and AB SCIEX API4000 LC-MS/MS was used to determine the concentration of the test compounds in the plasma sample in the MRM mode. According to the drug concentration-time curve, the WinNonLin 6.3 software non-compartmental model method was used to calculate the pharmacokinetic parameters.

Data set [4] relates to Balb/c 3T3 cells. Nature of the data set: In vitro 3T3 cell neutral red uptake phototoxicity test. The settings on record: for IC50: Mus musculus.
Method: (§1) Preparation of the test compound solution: The test compound was dissolved in dimethyl sulfoxide to obtain a 10 mg/mL solution, and then diluted with dimethyl sulfoxide in multiples of 2.15 times into solutions of different concentrations.
(§2) Balb/c 3T3 cells were seeded on 96-well culture plates. After 24 hours of culture, the culture medium was discarded, different concentrations of test compounds or balanced salts (HBSS) solution containing positive control substance (chlorpromazine hydrochloride, CPZ) and vehicle control substance were added. Two culture plates of each concentration of the test compound and the positive control substance are a light (+UV) plate and a non-light (-UV) plate, respectively. After incubating for 1 hour, the light plate was placed under UVA with a light intensity of about 1.7 mw/cm2 until the light dose reached 5.0 J/cm2. The non-light plate was placed at room temperature and protected from light for the same time. After the light was over, the culture medium was replaced with fresh one and continuously cultured for 18-22 hours. About 3 hours before the culture was complete, the culture medium was replaced with a medium containing neutral red and serum-free. After incubation, neutral red eluent was added, the absorbance value (OD540) of each well at 540 nm was measured after shaking. The cell 50% inhibitory concentration (IC50), light stimulating factor (PIF) and/or average light effect (MPE) were calculated. The phototoxicity of the compound was determined according to the following criteria: PIF>5 is judged as positive for phototoxicity; 5>PIF>2 is judged as possible phototoxicity; 2>PIF is judged as no phototoxicity.
Data set [5] relates to Balb/c 3T3 cells. The settings on record: mouse, 1 h.
Method: as §1, §2
For a further data set, the system named is Balb/c 3T3 fibroblast. The note with it: PMDA Examination Report (Jan. 8, 2019); cited from earlier work.
The mark [6] stands for this setting: BALB/c3T3, light or radiation study, read-out: IC50 (+UV).
Setting [7] is: BALB/c3T3, read-out: IC50 (−UV).

SMILES strings stand for the structures. Values after ≈ are worked out from the molar mass of the structure shown. Where a name gives a salt, the structure may show the parent alone. Read-outs that look alike come from different tables or passages of the source. Bounds are passed on as bounds.

With `Cc1c(C(=O)Nc2ccc(S(C)(=O)=O)c(F)c2)cn(CC2CCO2)c1-c1ccccc1C(F)(F)F` (stereo not shown) [Example 5, N-(3-Fluoro-4-(methylsulfonyl)phenyl)-4-methyl-1-(oxetan-2-ylmethyl)-5-(2-(trifluoromethyl)phenyl)-1H-pyrrole-3-carboxamide], in data set [1], the IC50 came to 21.5 nM.
In turn, `Cc1c(C(=O)Nc2ccc([S@SP2](C)(=O)=O)c(F)c2)cn(CCO)c1-c1ccccc1C(F)(F)F` [Example 2, (S)-1-(2-Hydroxyethyl)-4-methyl-N-(3-fluoro-4-(methylsulfonyl)phenyl)-5-(2-(trifluoromethyl)phenyl)-1H-pyrrole-3-carboxamide] yielded an IC50 in data set [1] of 3.4 nM. Further, in data set [2], the AUC(0-inf) amounted to 22000 ng·h/mL, the Cmax is 1040 ng/mL, the Tmax was 5.3 h and the half-life is 780 min. The “pharmacokinetic properties compared to the control compound CS-3150” value in data set [2] (cynomolgus monkeys) was “higher exposure, blood concentration and bioavailability”. Moreover, in data set [3], the AUC(0-inf) came to 145000 ng·h/mL, the Cmax worked out at 4690 ng/mL, the Tmax was 3.33 h and the half-life was 1520 min. The “pharmacokinetic properties compared with the control compound CS-3150” value in data set [3] was “higher exposure, blood concentration and long half-life”. For the same molecule, in the data set on Balb/c 3T3 cells [4] (Balb/c 3T3 cells, +UV vs −UV), the “MPE (average light effect)” value is on record as −0.044 and the “PIF (light stimulating factor)” value is given as 1.289. In the data set with Balb/c 3T3 cells [4] (setting [6]), the IC50 is 49.6 µg/mL (≈ 102 µM). For the same molecule, the IC50 in the data set with Balb/c 3T3 cells [4] (setting [7]) is 63.8 µg/mL (≈ 132 µM). In addition, in the data set on Balb/c 3T3 cells [4] (conclusion from Table 6), the “in vitro phototoxicity (in words)” value was “no in vitro phototoxicity”. Moreover, in the data set with Balb/c 3T3 cells [4] (judged from PIF), the Phototoxicity result is on record as “− (2>PIF is judged as no phototoxicity)”.
Consider `CN(C)CCCN1c2ccccc2Sc2ccc(Cl)cc21` [CPZ, chlorpromazine hydrochloride, reference compound], for which the IC50 with Balb/c 3T3 cells [4] (setting [6]) worked out at 0.982 µg/mL. In the data set on Balb/c 3T3 cells [4] (setting [7]), the IC50 was 36.7 µg/mL. In the data set on Balb/c 3T3 cells [5], the “MPE (average light effect)” value was 0.368 and the “PIF (light stimulating factor)” value came to 37.381.
`Cc1c(C(=O)Nc2ccc(S(C)(=O)=O)c(F)c2)cn(CC2(O)CC2)c1-c1ccccc1C(F)(F)F` [Example 3, N-(3-Fluoro-4-(methylsulfonyl)phenyl)-1-((1-hydroxycyclopropyl)methyl)-4-methyl-5-(2-(trifluoromethyl)phenyl)-1H-pyrrole-3-carboxamide] had an IC50 in data set [1] of 47.6 nM.
In turn, `Cc1c(C(=O)Nc2cc(F)c3c(c2)sc(=O)n3C)cn(CCO)c1-c1ccccc1C(F)(F)F` [Example 8, N-(4-Fluoro-3-methyl-2-oxo-2,3-dihydrobenzo[d]thiazol-6-yl)-1-(2-hydroxyethyl)-4-methyl-5-(2-(trifluoromethyl)phenyl)-1H-pyrrole-3-carboxamide] came in with an IC50 in data set [1] of 82.2 nM.
On the same count and under the same terms, next, `Cc1c(C(=O)Nc2ccc(S(C)(=O)=O)c(F)c2)cn(CCO)c1-c1ccccc1C(F)(F)F` [Example 1, N-(3-Fluoro-4-(methylsulfonyl)phenyl)-1-(2-hydroxyethyl)-4-methyl-5-(2-(trifluoromethyl)phenyl)-1H-pyrrole-3-carboxamide]: 6.93 nM.
`Cc1c(C(=O)Nc2ccc(S(C)(=O)=O)c(F)c2)cn(-c2cccnc2)c1-c1ccccc1C(F)(F)F` [Example 7, N-(3-Fluoro-4-(methylsulfonyl)phenyl)-4-methyl-1-(pyridin-3-yl)-5-(2-(trifluoromethyl)phenyl)-1H-pyrrole-3-carboxamide] had an IC50 in data set [1] of 84.5 nM.
Turning to `Cc1c(C(=O)Nc2ccc(S(C)(=O)=O)cc2)cn(CCO)c1-c1ccccc1C(F)(F)F` (atropisomer, axis not shown) [CS-3150, Esaxerenone, reference compound], in the data set on Balb/c 3T3 fibroblast, the “light stimulus factor PIF” value is listed as more than 17 and the “phototoxicity (in words)” value is listed as “phototoxic”. In data set [2], the AUC(0-inf) is 8990 ng·h/mL, the peak level (Cmax) was 741 ng/mL, the Tmax worked out at 1.67 h and the half-life is 578 min. In data set [3], the AUC(0-inf) is 45600 ng·h/mL, the highest level (Cmax) was 1580 ng/mL, the Tmax amounted to 2.33 h and the half-life was 1220 min.
Regarding `Cc1c(C(=O)Nc2ccc(S(C)(=O)=O)c(F)c2)cn(C2COC2)c1-c1ccccc1C(F)(F)F` [Example 6, N-(3-Fluoro-4-(methylsulfonyl)phenyl)-4-methyl-1-(oxetan-3-yl)-5-(2-(trifluoromethyl)phenyl)-1H-pyrrole-3-carboxamide], half-maximal inhibition in data set [1] (IC50) required 30.3 nM.

What is called IC50 is the concentration at which inhibition is half-maximal. For orientation: AUC(0-inf) means the area under the concentration-time curve extrapolated to infinity. What is called Cmax is the peak of the concentration-time curve. Broadly, the Tmax is the time at which the peak concentration occurs. The term half-life denotes how long it takes for the measured level to halve.
